This note sets out measurements from ChEMBL document CHEMBL3769332, “Affinity-Based Fluorescence Polarization Assay for High-Throughput Screening of Prolyl Hydroxylase 2 Inhibitors” (ACS Med Chem Lett, 2015).

For the test, the target named is Egl nine homolog 1 (Homo sapiens, UniProt Q9GZT9).
Egl nine homolog 1, sequence (Q9GZT9 whole entry): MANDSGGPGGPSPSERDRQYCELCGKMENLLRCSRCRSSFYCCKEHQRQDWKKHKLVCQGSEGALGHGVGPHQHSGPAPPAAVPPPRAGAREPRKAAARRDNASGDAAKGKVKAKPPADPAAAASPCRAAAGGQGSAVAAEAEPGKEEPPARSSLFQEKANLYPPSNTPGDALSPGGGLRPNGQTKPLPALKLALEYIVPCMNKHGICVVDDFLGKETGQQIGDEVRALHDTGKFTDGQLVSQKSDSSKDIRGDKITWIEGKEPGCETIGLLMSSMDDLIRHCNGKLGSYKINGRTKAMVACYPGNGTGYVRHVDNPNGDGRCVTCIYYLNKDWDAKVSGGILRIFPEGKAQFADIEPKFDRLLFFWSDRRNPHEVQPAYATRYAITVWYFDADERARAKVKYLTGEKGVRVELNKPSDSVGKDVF

With `Cc1ccc(-c2cnc(C(=O)NCC(=O)O)c(O)c2)cc1`, it took 890 nM to reach half-maximal inhibition (IC50).
The same measure for `O=c1c(-n2ccnn2)c[nH]n1-c1cc(N2CCOCC2)ncn1` [MOLIDUSTAT]: 876 nM.

The term IC50 denotes the concentration at which inhibition is half-maximal.
